Measurements: patent US20200399238A1, “THERAPEUTIC AURONES” (MIDDLE TENNESSEE STATE UNIVERSITY, priority 2016, published 2020)
Read-outs that look alike come from different tables or passages of the source.

Tests used:
[1] = tested on: Trypanosoma brucei brucei 427 cells; experiment: T. brucei culture and assay (PrestoBlue); format: cell-based
[2] = tested on: Leishmania amazonensis promastigotes expressing beta-lactamase; experiment: microbe, parasite or virus in culture; format: cell-based
Description: Leishmania amazonensis promastigotes expressing beta-lactamase (Buckner et al., Am. J. Trop. Med. Hyg. 72 (2005) 600-605. doi:72/5/600 [pii]) were cultured in RPMI supplemented with 10% fetal calf serum and 1% pen-strep-glut solution (Sigma) at 27° C. Stationary phase promastigotes were adjusted in fresh media, treated with compounds, and incubated at 37° C. At 24 hours, 100 uL of cultures was added to 50 uL of the CellTiter Glo® solution. Luminescence readings were taken with a spectrophotometer and used to calculate inhibition.

[3] = tested on: rat skeletal muscle cell line, L6; experiment: cells; format: cell-based
Description: Cells were maintained in high glucose DMEM obtained from HyClone Laboratories (Logan, Utah) and supplemented with FCS and P/S at the same concentrations used for parasite culture. Cells were passaged every 3-4 days and maintained in a 37° C. humidified incubator in an atmosphere of 5% CO2. For assays. cells were detached, counted using a hemocytometer, and adjusted using fresh media to deliver 5×10^3 cells per well (90 μL) in black walled, flat clear bottom 96-well microtiter plates. After 3 h incubation for attachment, compounds diluted in culture medium were added (10 μL) to triplicate wells. Positive controls (cells treated with podophyllotoxin (Sigma, St. Louis, Mo.)), negative controls (untreated cells), solvent controls (DMSO) and media blanks were included on each plate. Following incubation for 71.5 h, 11 μL of PrestoBlue was added into each well.

[4] = tested on: Trypanosoma cruzi Tulahuen cells expressing beta-galactosidase; experiment: T. cruzi intracellular assay (beta-galactosidase, L6 host cells); conditions: for IC50: Trypanosoma cruzi, TULAHUEN; for Selectivity L6/TC-I: Table 3A
[5] = Trypanosoma brucei, Table 1, mean of 2(+) independent trials, read-out: IC50 T. brucei
[6] = Leishmania amazonensis, read-out: IC50 L. amaz.
[7] = Rattus norvegicus, Table 1, read-out: IC50 Toxicity (L6)
[8] = read-out: IC50 T. cruzi, Table 1, intracellular assay, mean of 2(+) trials (^c one trial)
[9] = read-out: IC50 T. cruzi, Table 2, intracellular assay, mean of 2(+) independent trials
[10] = Table 2, L6 IC50 / T. brucei IC50
[11] = Rattus norvegicus, Table 3A, weighted means of two or more independent trials, read-out: IC50 L6
[12] = Table 1, intracellular T. cruzi IC50
[13] = Table 2, L6 IC50 / T. cruzi IC50 (intracellular assay)
[14] = estimated from highest L6 dose tested where no L6 IC50
[15] = read-out: IC50 TC-I, Table 3A, weighted means of two or more independent trials
[16] = Trypanosoma brucei, read-out: IC50 TB
[17] = Rattus norvegicus, Table 3B, weighted means of two or more independent trials, read-out: IC50 L6
[18] = Table 2, L6 mammalian cells, read-out: IC50 Toxicity (L6)
[19] = read-out: IC50 TC-I, Table 3B, weighted means of two or more independent trials

SMILES	IC50 [1, 5]	IC50 [2, 6]	IC50 [3, 7]	IC50 [4, 8]	IC50 [4, 9]	Selectivity L6/Tc [4, 12]	further results
CN(C)c1ccc(/C=C2\Oc3ccccc3C2=O)cc1 [Aurone 9087, (Z)-2-(4-(dimethylamino)benzylidene)benzofuran-3(2H)-one]	39 µM	1.65 µM	144 µM	5.38 µM	5.38 µM		selectivity for T. cruzi (L6/Tc) [4]: 26.83; IC50 ([4]; read-out: T. cruzi IC50 dose): 5.38 µM
O=C1/C(=C/c2ccccc2)Oc2ccccc21 [Aurone 6615, (Z)-2-benzylidenebenzofuran-3(2H)-one]	40.1 µM	4.13 µM	329 µM	15.8 µM	15.8 µM	20.88	Selectivity L6/Tb ([1]; Table 1): 8.22; Selectivity L6/Tb [1, 10]: 8.22; Selectivity L6/Tb ([1]; Table 3A, estimated from highest L6 dose tested where no L6 IC50): 8.22; Selectivity L6/La ([2]; Table 1): 79.77; IC50 [3, 11]: 329 µM; Selectivity L6/Tc [4, 13]: 20.88; Selectivity L6/TC-I [4, 14]: 20.88; IC50 [4, 15]: 15.8 µM
N#Cc1ccccc1/C=C1\Oc2ccccc2C1=O [Aurone 3007, (Z)-2-((3-oxobenzofuran-2(3H)-ylidene)methyl)benzonitrile]	> 50 µM	17.6 µM	> 100 µM	46.6 µM		>2.14	Selectivity L6/La ([2]; Table 1): >5.69; IC50 [3, 11]: > 100 µM; Selectivity L6/TC-I [4, 14]: >2.14; IC50 [4, 15]: 46.6 µM
O=C1/C(=C/c2cnc[nH]2)Oc2ccccc21 [Aurone 6621, (Z)-2-((1H-imidazol-5-yl)methylene)benzofuran-3(2H)-one]	1.56 µM	> 50 µM	> 100 µM	18.3 µM	18.3 µM	>5.45	Selectivity L6/Tb ([1]; Table 1): >64.10; Selectivity L6/Tb [1, 10]: >64.10; IC50 [1, 16]: > 50 µM; IC50 ([2]; read-out: IC50 L. amaz., Table 2, mean of 2(+) independent trials): > 50 µM; IC50 [3, 17]: > 100 µM; IC50 [3, 18]: > 100 µM; Selectivity L6/Tc [4, 13]: >5.45; Selectivity L6/Tc-I ([4]; Table 3B, estimated from highest L6 dose tested where no L6 IC50): >5.45; IC50 [4, 19]: 18.3 µM
O=C1/C(=C/c2ccccc2Cl)Nc2ccccc21 [AA11]	> 50 µM	1.86 µM	> 200 µM	> 50 µM			IC50 ([4]; read-out: IC50 T. cruzi (footnote c: value obtained from one trial), Table 2, one trial): > 50 µM
O=C1/C(=C/c2ccccc2)Nc2ccccc21 [AA8]	11.7 µM	< 1 µM	> 100 µM	16.8 µM	16.8 µM		
O=C1/C(=C/c2ccco2)Oc2ccccc21 [Aurone 2023]	> 50 µM	< 1 µM	> 100 µM	6.97 µM	6.97 µM		IC50 [1, 16]: > 50 µM; IC50 ([1]; Trypanosoma brucei, read-out: T. brucei IC50 dose): > 50 µM; IC50 [3, 17]: > 100 µM; IC50 [4, 19]: 6.97 µM; IC50 ([4]; read-out: T. cruzi IC50 dose): < 10 µM
O=C1/C(=C/c2cccc(O)c2)Oc2ccccc21 [Aurone 9252, (Z)-2-(3-hydroxybenzylidene)benzofuran-3(2H)-one]	34.9 µM	1.52 µM	> 100 µM	16.5 µM	16.5 µM		
O=C1/C(=C/c2ccc(Br)cc2)Oc2cc(O)ccc21 [Aurone 2905, (Z)-2-(4-bromobenzylidene)-6-hydroxybenzofuran-3(2H)-one]	> 50 µM	39 µM	> 100 µM	> 50 µM			
O=C1/C(=C/c2cccc(Br)c2)Oc2ccccc21 [Aurone 9030, (Z)-2-(3-bromobenzylidene)benzofuran-3(2H)-one]	> 50 µM	< 1 µM	> 100 µM	7.35 µM	7.35 µM	>13.61	IC50 ([1]; Table 2, mean of 2(+) independent trials, read-out: IC50 T. brucei): > 50 µM; IC50 ([2]; Leishmania amazonensis, read-out: IC50 L. amaz. (footnote c: value obtained from one trial)): < 1 µM; Selectivity L6/La ([2]; Table 1): >100; Selectivity L6/La ([2]; Table 2, L6 IC50 / L. amazonensis IC50): >100; IC50 [3, 11]: > 100 µM; IC50 [3, 18]: > 100 µM; Selectivity L6/Tc [4, 13]: >13.61; Selectivity L6/TC-I [4, 14]: >13.61; IC50 [4, 15]: 7.35 µM
N#Cc1ccc(/C=C2\Oc3ccccc3C2=O)cc1 [Aurone 2014]	8.12 µM	10.7 µM	239 µM	23.5 µM	23.5 µM		
COc1ccc(/C=C2\Oc3ccccc3C2=O)cc1OC [Aurone 2011]	22.9 µM	1.01 µM	51.9 µM	21.9 µM	21.9 µM		
